7 molecules from US20240197685A1, “SELECTIVE ANGIOTENSIN II RECEPTOR LIGANDS” (priority 2021, published 2024) can be followed below.

Values joined by “and” are separate entries in the source; they are usually repeats but may differ in a detail not shown here. Equal values may be shown once. Read-outs that look alike come from different tables or passages of the source.

The target of data set [1] is T1, CYP2C19 (Homo sapiens, UniProt P33261).
T1 construct: tissue Eurofins protocol ITEMG232; host or cells: human liver microsomes
T1 sequence (P33261 whole entry): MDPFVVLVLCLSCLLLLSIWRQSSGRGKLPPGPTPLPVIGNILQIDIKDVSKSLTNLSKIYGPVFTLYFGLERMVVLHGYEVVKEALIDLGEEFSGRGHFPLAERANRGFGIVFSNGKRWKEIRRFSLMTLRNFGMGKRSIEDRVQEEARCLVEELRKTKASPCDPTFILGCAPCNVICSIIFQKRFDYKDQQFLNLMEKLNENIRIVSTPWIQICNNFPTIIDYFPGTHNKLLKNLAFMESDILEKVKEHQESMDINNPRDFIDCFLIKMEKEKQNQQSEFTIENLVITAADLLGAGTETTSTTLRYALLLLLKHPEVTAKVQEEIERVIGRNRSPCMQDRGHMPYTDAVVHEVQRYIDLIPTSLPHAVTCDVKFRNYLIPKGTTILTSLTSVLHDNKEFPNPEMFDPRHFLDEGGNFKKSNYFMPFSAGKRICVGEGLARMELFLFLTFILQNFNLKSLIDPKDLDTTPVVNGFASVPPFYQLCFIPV
The data set can be described thus: CYP inhibition, human liver microsomes. The class given is in vitro ADME. Conditions: probe omeprazole, substrate omeprazole, read-out: CYP2C19 Inh %.

Data set [2] addresses T2, human recombinant AT1 receptor (Homo sapiens, UniProt P30556).
T2 construct: Eurofins protocol ITEM24
T2 sequence (P30556 1-359): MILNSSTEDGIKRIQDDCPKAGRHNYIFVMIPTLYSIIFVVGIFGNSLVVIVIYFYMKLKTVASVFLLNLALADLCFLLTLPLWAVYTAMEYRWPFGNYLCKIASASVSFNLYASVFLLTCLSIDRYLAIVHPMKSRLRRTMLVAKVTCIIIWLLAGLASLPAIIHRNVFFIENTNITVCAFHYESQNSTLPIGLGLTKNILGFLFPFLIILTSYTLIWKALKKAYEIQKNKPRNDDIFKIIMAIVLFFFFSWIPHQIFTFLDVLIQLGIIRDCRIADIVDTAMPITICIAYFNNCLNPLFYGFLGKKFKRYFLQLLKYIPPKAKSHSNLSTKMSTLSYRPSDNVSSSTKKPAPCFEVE
The data set is described as follows: Binding to AT1 receptor, radiometric scintillation assay (Eurofins). As to conditions: single run; 1 and 10 μM; ligand 125I(sar1,Ile8)-AT-II.

The target of data set [3] is T3, CYP2C9 (Homo sapiens, UniProt P11712).
T3 construct: tissue Eurofins protocol ITEMG232; host or cells: human liver microsomes
T3 sequence (P11712 whole entry): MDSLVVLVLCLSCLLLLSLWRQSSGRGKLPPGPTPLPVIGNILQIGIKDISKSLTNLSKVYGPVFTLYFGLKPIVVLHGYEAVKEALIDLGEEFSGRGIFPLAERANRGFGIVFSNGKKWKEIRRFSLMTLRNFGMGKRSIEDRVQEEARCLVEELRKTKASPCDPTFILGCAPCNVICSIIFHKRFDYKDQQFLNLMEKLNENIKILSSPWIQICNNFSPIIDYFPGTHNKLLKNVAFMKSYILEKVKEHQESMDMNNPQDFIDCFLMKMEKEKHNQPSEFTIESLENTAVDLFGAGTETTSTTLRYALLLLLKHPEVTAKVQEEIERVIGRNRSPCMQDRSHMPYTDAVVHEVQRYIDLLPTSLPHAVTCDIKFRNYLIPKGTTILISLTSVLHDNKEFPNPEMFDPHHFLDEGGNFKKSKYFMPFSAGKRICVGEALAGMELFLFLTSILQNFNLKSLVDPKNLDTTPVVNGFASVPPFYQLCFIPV
The data set can be described thus: CYP inhibition, human liver microsomes. The format is in vitro ADME. As to conditions: for inhibition at 10 µM: probe diclofenac, substrate diclofenac, human liver microsomes, read-out: CYP2C9 Inh %.

The target in data set [4] is T4, CYP1A (Homo sapiens, UniProt P05177).
T4 construct: tissue Eurofins protocol ITEMG232; host or cells: human liver microsomes
T4 sequence (P05177 2-516 limits assumed): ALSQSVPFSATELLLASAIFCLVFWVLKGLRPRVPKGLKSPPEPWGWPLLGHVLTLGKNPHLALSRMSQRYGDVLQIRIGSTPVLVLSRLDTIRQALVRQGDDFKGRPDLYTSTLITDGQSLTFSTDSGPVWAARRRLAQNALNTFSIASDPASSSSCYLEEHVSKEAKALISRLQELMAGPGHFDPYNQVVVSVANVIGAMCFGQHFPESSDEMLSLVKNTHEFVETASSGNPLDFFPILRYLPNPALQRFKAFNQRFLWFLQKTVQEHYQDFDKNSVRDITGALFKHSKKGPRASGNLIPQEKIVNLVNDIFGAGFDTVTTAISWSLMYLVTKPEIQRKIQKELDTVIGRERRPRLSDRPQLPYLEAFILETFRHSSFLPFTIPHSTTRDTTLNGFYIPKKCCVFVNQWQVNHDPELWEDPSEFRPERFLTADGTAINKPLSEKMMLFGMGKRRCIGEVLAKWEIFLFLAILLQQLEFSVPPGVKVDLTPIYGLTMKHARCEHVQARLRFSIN
The data set can be described thus: CYP inhibition, human liver microsomes. The format is in vitro ADME. As to conditions: probe phenacetin, substrate phenacetin, read-out: CYP1A Inh %.

Data set [5] concerns the target T5, CYP2C8 (Homo sapiens, UniProt P10632).
T5 construct: tissue Eurofins protocol ITEMG232; host or cells: human liver microsomes
T5 sequence (P10632 1-490): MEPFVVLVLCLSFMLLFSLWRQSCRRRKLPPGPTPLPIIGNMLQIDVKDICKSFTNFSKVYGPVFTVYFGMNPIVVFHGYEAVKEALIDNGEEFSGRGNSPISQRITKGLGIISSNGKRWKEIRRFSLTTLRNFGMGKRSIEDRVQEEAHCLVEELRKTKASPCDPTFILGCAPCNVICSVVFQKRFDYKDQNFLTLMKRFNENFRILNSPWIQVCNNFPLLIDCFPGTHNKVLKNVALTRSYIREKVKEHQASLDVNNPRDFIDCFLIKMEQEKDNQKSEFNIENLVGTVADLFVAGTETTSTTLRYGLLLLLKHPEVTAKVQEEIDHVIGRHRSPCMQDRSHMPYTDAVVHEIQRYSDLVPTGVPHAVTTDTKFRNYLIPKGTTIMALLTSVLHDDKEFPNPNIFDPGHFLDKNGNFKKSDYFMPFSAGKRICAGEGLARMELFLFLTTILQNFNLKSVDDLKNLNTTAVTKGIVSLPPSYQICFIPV
The data set can be described thus: CYP inhibition, human liver microsomes. The class given is in vitro ADME. Conditions: probe paclitaxel and amodiaquine, substrates paclitaxel and amodiaquine, read-out: CYP2C8 Inh %.

Data set [6] addresses T6, CYP3A4 (Homo sapiens, UniProt P08684).
T6 construct: tissue Eurofins protocol ITEMG232; host or cells: human liver microsomes
The data set is described as follows: CYP inhibition, human liver microsomes. The format is in vitro ADME. Conditions: for inhibition at 10 µM: probe midazolam, substrate midazolam, human liver microsomes, read-out: CYP3A4 midazolam Inh %.

Data set [7] addresses T7, human recombinant AT2 receptor (Homo sapiens, UniProt P50052).
T7 construct: Eurofins protocol ITEM26
T7 sequence (P50052 1-363): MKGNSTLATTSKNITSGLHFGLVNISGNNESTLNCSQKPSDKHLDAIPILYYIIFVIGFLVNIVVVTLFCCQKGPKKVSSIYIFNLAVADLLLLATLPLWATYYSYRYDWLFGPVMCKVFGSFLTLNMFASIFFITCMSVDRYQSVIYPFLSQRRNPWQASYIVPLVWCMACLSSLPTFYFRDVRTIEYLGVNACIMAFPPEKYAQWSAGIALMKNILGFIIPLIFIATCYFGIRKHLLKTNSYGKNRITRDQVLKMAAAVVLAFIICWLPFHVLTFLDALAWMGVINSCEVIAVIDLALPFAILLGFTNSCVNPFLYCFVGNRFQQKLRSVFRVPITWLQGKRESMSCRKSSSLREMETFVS
The data set is described as follows: Binding to AT2 receptor, radiometric scintillation assay (Eurofins). Conditions: for IC50: read-out: AT2 GraFit IC50; for Ki: seven-point dose-response curve, read-out: AT2R Ki.

The test system of data set [8] is CYP3A4&5. The data set is described as follows: CYP inhibition, human liver microsomes. The format is in vitro ADME. Conditions: probe testosterone, substrate testosterone, read-out: CYP3A4&5 testosterone Inh %.
Data set [9] can be described thus: Metabolic stability in pooled human liver microsomes. The class given is in vitro ADME. Conditions: for half-life at 1 μM: human, pooled human liver microsomes, human liver microsomes 0.5 mg/mL, test compound 1 μM, 37° C.
For data set [10], the target named is T8, CYP2D6 (Homo sapiens, UniProt P10635).
T8 construct: tissue Eurofins protocol ITEMG232; host or cells: human liver microsomes
T8 sequence (P10635 whole entry): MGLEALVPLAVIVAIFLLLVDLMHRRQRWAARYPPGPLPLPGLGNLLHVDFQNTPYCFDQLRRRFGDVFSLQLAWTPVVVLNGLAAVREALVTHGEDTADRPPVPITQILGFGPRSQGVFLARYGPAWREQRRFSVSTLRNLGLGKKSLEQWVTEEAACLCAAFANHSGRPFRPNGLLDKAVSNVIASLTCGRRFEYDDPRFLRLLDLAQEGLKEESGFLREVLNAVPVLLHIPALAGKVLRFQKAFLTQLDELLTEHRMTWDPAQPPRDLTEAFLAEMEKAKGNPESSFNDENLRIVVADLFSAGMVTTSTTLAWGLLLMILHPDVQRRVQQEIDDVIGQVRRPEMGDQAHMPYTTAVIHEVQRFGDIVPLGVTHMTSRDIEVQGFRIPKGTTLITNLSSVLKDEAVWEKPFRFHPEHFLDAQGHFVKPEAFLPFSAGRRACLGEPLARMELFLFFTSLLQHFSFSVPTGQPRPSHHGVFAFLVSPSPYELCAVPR
The data set is described as follows: CYP inhibition, human liver microsomes. The format is in vitro ADME. As to conditions: probe dextromethorphan, substrate dextromethorphan, read-out: CYP2D6 Inh %.

The target of data set [11] is T9, CYP2B6 (Homo sapiens, UniProt P20813).
T9 construct: tissue Eurofins protocol ITEMG232; host or cells: human liver microsomes
T9 sequence (P20813 1-491): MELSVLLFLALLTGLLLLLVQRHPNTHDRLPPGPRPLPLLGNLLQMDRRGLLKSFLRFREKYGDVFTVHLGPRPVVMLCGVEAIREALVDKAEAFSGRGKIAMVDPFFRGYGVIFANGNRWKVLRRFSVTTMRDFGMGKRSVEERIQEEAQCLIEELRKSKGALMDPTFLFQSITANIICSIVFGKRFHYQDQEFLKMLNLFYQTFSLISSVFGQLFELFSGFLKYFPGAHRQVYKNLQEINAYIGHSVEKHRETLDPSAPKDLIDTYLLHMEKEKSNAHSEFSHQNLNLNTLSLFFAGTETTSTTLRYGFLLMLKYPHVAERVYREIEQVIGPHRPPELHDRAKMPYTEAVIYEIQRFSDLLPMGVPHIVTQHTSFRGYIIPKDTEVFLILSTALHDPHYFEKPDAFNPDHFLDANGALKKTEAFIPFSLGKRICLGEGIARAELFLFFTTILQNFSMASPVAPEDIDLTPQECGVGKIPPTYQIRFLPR
The data set is described as follows: CYP inhibition, human liver microsomes. The class given is in vitro ADME. As to conditions: probe bupropion, substrate bupropion, read-out: CYP2B6 Inh %.

[12] abbreviates: single run, 1, 10, 100 and 1000 nM, ligand 125I CGP 42112A.
Where [13] appears, read: with 1 mM NADPH, read-out: T1/2, + NaDPH.
The mark [14] stands for this setting: without NADPH, read-out: T1/2, no NaDPH.
Where [15] appears, read: found during development, background statement.

T6 sequence (P08684 whole entry): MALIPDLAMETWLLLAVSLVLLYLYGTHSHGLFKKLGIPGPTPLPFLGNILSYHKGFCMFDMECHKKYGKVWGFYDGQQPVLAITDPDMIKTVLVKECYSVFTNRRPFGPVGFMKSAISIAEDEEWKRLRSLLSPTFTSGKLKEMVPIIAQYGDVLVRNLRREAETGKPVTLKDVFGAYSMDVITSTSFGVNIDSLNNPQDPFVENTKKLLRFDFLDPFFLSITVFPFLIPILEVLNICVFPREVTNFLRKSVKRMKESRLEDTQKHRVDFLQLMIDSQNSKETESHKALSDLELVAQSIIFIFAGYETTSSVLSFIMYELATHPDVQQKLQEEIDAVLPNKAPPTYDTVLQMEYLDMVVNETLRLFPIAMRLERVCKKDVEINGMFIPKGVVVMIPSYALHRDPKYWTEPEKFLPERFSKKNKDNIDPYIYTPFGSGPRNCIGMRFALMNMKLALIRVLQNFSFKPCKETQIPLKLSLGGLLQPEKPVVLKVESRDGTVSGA

With `CC(C)Cc1cc(-c2ccc(Cn3ccnc3C(C)(C)C)cc2)c(S(=O)(=O)NC(=O)NCc2ccco2)s1` [Example 1, Furan-2-ylmethyl-3-[[5-isobutyl-3-[4-[(2-tert-butyl-imidazol-1-yl)methyl]phenyl]-2-thienyl]sulfonyl]urea], the inhibition at 10 µM in data set [1] is 49.1%; in data set [3] it was 58.4%; in data set [4] it was -13.2%; in data set [5], 77.8%; in [6], 11.6%; in data set [8], 11.8%. The inhibition at 10 µM in data set [10] stood at 13.8%; in data set [11], 96.5%. For the same molecule, the IC50 in [2] was 3000 nM; in data set [7] (mean average of the runs) it was 4.2 nM; in [7] (setting [12]) it was 2.6 nM and 5.7 nM. The Ki in [7] (ligand 125I CGP 42112A) was 2.8 nM. Moreover, the half-life at 1 μM in [9] (setting [13]) and in [9] (setting [14]) was over 1 h in each case.

With `CC(C)Cc1cc(-c2ccc(Cn3ccnc3C(C)(C)C)cc2)c(S(=O)(=O)NC(=O)NCc2cccs2)s1` [Example 2], the inhibition at 10 µM in data set [1] is 56.8%; in data set [3] it was 64.6%; in data set [4] it was -1.8%; in data set [5] it was 81.8%; in data set [6], 40.9%; in [8], 18%. In addition, the values for the inhibition at 10 µM in data set [10] and in data set [11] were 33.6% and 9.6%, respectively. Further, the IC50 in [2] was 2000 nM; in data set [7] (mean average of the runs), 2.5 nM; in data set [7] (setting [12]) it was 2.5 nM. In addition, the Ki in [7] (ligand 125I CGP 42112A) was 1.25 nM. Moreover, the half-life at 1 μM in [9] (setting [13]) is 0.533 h; in data set [9] (setting [14]) it was over 1 h.

Consider `COCCNC(=O)NS(=O)(=O)c1sc(CC(C)C)cc1-c1ccc(Cn2ccnc2C(C)(C)C)cc1` [Example 3], for which the half-life at 1 μM in data set [9] (setting [13]) and in data set [9] (setting [14]) was over 1 h each time.

Regarding `CC(C)Cc1cc(-c2ccc(Cn3ccnc3C(C)(C)C)cc2)c(S(=O)(=O)NC(=O)NCc2ccccn2)s1` [Example 4], the inhibition at 10 µM was 44.4% in data set [1]; 43.5% in data set [3]; -0.5% in data set [4]; 79.3% in data set [5]; 33.7% in [6]; 16.7% in [8]. For the same molecule, the inhibition at 10 µM was 24.3% in [10] and 13.8% in data set [11]. For the same molecule, the IC50 in data set [2] is 3000 nM; in data set [7] (mean average of the runs) it was 2.9 nM; in [7] (setting [12]), 3.7 nM and 2.1 nM. In addition, the Ki in data set [7] (ligand 125I CGP 42112A) was 1.9 nM. In addition, the half-life at 1 μM in data set [9] (setting [13]) and in [9] (setting [14]) was over 1 h in each case.

For `CC(C)Cc1cc(-c2ccc(Cn3ccnc3C(C)(C)C)c(F)c2)c(S(=O)(=O)NC(=O)NCc2ccccn2)s1` [Example 5, 1-[[3-[4-[(2-Tert-butylimidazol-1-yl)methyl]-3-fluoro-phenyl]-5-isobutyl-2-thienyl]sulfonyl]-3-(2-pyridylmethyl)urea], the inhibition at 10 µM was determined as 52.1% in [1]; 62.1% in data set [3]; 34.1% in data set [4]; 78.3% in data set [5]; 43% in data set [6]; 18.9% in data set [8]. Also, the inhibition at 10 µM in data set [10] worked out at 23.2%; in data set [11], 24.9%. Besides, the values for the IC50 in [2] and in [7] (setting [12]) were 1800 nM and 0.44 nM, respectively. Also, the half-life at 1 μM in [9] (setting [13]) and in data set [9] (setting [14]) was over 1 h in each case.

As to `CCNC(=O)NS(=O)(=O)c1sc(CC(C)C)cc1-c1ccc(Cn2ccnc2C(C)(C)C)c(F)c1` [Example 6, 1-[[3-[4-[(2-Tert-butylimidazol-1-yl)methyl]-3-fluoro-phenyl]-5-isobutyl-2-thienyl]sulfonyl]-3-ethyl-urea], the inhibition at 10 µM in data set [1] came to 35.1%; in data set [3] it was 39.7%; in data set [4], 15.8%; in data set [5], 77.6%; in data set [6], 23.8%; in data set [8] it was 10.8%. Further, the inhibition at 10 µM in data set [10] came to 18.8%; in [11] it was 27%. Moreover, the half-life at 1 μM in data set [9] (setting [13]) and in data set [9] (setting [14]) was over 1 h throughout.

With `CCCCOC(=O)NS(=O)(=O)c1sc(CC(C)C)cc1-c1ccc(Cn2ccnc2)cc1` [Example C21, N-butyloxycarbonyl-3-(4-imidazol-1-ylmethylphenyl)-5-isobutylthiophene-2-sulfon-amide, reference compound], the “inhibition of CYP 2C9 (in words)” value in data set [3] (setting [15]) was “potent inhibitor”. In data set [6] (setting [15]), the “inhibition of CYP 3A4 (in words)” value is listed as “potent inhibitor”. For the same molecule, the “metabolic hydrolysis (in words)” value in data set [9] (setting [15]) is “rapidly hydrolysed to an inactive sulfonamide metabolite”.
